Legend:
[1] = system: tissue‐type plasminogen activator–induced fibrinolysis in rat whole blood; test: Whole blood clot formation and lysis assay (ROTEM thromboelastometry), rat blood; type: biochemical
Protocol: Citrated blood samples from (n=4) rats (Sprague Dawley) and (n=16) mice ([…], Harlan Iberica) were assayed with a ROTEM analyzer (Pentapharm GmbH, Munich, Germany) as previously described.20 In a prewarmed cuvette and holder we pipetted 1 μL tissue-type plasminogen activator (150 000 U/mL), 20 μL Start-tem reagent (Pentapharm GmbH), 20 μL In-tem reagent (Pentapharm GmbH), 3 μL DMSO (SIGMA) or test compounds in DMSO, and 300 μL prewarmed citrated blood. The cup holder containing the sample mixture was placed immediately on the appropriate channel. Measurements were recorded for 60 minutes to allow clot formation and lysis, and results are expressed as effective concentration to delay lysis time by 50%.

[2] = molecular target: T1, MMP‐2 (Homo sapiens, UniProt P08253); test: MMP enzyme activity assay; type: biochemical; conditions: read-out: MMP Inhibitory Activity (IC50), MMP‐2
T1 construct: GenScript (contract testing)
T1 sequence (P08253 110-660): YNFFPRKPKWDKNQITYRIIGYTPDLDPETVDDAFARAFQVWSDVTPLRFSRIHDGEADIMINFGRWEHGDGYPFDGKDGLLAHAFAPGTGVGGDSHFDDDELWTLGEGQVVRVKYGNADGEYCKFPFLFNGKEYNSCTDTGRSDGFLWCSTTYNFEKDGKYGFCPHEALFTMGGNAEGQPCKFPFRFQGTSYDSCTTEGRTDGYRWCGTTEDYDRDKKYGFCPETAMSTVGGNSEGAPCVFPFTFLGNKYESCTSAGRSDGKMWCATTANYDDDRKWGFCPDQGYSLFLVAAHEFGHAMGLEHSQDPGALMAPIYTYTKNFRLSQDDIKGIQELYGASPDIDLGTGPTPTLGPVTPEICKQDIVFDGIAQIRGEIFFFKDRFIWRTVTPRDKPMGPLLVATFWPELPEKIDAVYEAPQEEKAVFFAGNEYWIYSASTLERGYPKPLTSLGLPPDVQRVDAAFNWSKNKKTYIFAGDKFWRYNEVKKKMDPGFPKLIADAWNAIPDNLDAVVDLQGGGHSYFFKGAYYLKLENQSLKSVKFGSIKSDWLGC
Protocol: (§1) Protease stock solutions (10 mmol/L) were diluted with assay buffer to make final test solutions containing no more than 2.0% DMSO. The samples were dispensed into plates; substrate was added and read with PHERAstar PLUS (BMG Labtech, Ortenberg, Germany) plate reader.

[3] = molecular target: T2, MMP‐7 (Homo sapiens, UniProt P09237); test: MMP enzyme activity assay; type: biochemical; conditions: read-out: MMP Inhibitory Activity (IC50), MMP‐7
T2 construct: GenScript (contract testing)
T2 sequence (P09237 95-267): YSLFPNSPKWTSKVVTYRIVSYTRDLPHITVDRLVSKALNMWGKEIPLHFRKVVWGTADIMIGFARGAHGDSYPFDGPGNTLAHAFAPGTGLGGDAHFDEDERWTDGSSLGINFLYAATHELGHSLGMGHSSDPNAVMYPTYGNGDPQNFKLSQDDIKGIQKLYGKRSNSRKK
Protocol: as §1

[4] = molecular target: T3, MMP‐9 (Homo sapiens, UniProt P14780); test: MMP enzyme activity assay; type: biochemical; conditions: read-out: MMP Inhibitory Activity (IC50), MMP‐9
T3 construct: GenScript (contract testing)
Protocol: as §1

[5] = Prothrombin time in plasma after ICH; type: in vivo, rat; conditions: percentage of the standard value, n=3
Protocol: Prothrombin time (PT) and activated partial thromboplastin time (aPTT) were measured with STA‐Neoplastin R and PTT reagents (STA‐Compact, Stago, Barcelona, Spain). PT results were expressed as percentage of the standard value, and aPTT results were expressed in seconds.

T3 sequence (P14780 94-707, species assumed): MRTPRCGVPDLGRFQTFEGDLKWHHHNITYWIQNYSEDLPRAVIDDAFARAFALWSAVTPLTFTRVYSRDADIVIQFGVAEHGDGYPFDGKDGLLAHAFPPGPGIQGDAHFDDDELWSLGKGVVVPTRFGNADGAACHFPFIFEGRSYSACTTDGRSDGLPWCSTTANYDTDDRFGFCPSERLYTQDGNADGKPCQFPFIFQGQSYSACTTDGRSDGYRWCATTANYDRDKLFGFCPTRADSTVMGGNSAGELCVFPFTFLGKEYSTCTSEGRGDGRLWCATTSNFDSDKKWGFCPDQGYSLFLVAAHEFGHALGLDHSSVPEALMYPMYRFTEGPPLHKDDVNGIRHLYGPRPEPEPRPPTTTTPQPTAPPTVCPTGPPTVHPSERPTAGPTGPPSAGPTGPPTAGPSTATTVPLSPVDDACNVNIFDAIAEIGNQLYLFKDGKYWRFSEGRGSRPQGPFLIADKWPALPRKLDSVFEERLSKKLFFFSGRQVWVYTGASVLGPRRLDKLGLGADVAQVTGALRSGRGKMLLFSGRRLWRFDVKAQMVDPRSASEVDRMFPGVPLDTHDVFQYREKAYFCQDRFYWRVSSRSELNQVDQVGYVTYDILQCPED

CNC(=O)c1ccc(Oc2ccc(S(=O)(=O)[C@]3(C(=O)NO)CCC4(CCNCC4)C3)cc2)cc1 [CM352, 4‐[4‐[[(3R)‐3‐(Hydroxycarbamoyl)‐8‐azaspiro[4.5]decan‐3‐yl]sulfonyl]phenoxy]‐N‐methylbenzamide]
EC50 ([1]; rat whole blood, tPA‐induced fibrinolysis, ROTEM, read-out: effective concentration to delay lysis time by 50%): 3.7 µM
coagulation activation and clot firmness ([1]; thromboelastometry assay, whole blood): without changes in coagulation activation and clot firmness
IC50 [2]: 0.0084 µM
IC50 [3]: 16 µM
IC50 [4]: 0.01 µM
PT ([5]; 3 H): 62.0±2.6%
PT ([5]; 5 H): 63.7±4.0%
PT ([5]; 24 H): 65.1±7.6%
PT ([5]; Basal): 62.7±5.1%

Reference: PMC5669199, “CM352 Reduces Brain Damage and Improves Functional Recovery in a Rat Model of Intracerebral Hemorrhage” (Journal of the American Heart Association: Cardiovascular …, 2017)
